Laboratory results as given in patent US8945921B2, “Modulating the production of neurons and/or oligodendrocytes from white matter progenitor cells” (Cornell Research Foundation, Inc., priority 2003, dated 2015).

Tested on: adult human white matter progenitor cells (WMPCs)
Assay: Tyrosine phosphatase inhibition: oligodendrocyte differentiation of cultured WMPCs (A2B5/O4/BrdU immunocytochemistry)
Assay type: cell-based
Method: WMPCs were distributed onto 12-well plates coated with poly-L-ornithine and fibronectin at 5×10^4 cells/ml in DMEM/F12/N1 supplemented with 10 ng/ml bFGF (Sigma), 10 ng/ml PDGF-AA (Sigma), and 2 ng/ml NT3 (R&D Systems). Stock solutions of 1 μM bpV(phen) (potassium bisperoxo (1,10-phenanthroline) oxovanadate (V); Calbiochem) were prepared before each use. Cells were exposed to concentrations of 0, 1, 5, 10, and 25 ng/ml of bV(phen) immediately upon plating, and every 2 days thereafter for 7 day in vitro.
Cultures were exposed continuously to 10 μg/ml BrdU beginning 24 hours before fixation. After 7 days in vitro, A2B5 and O4 were immunolabeled as previously described (Roy et al., “Identification, Isolation, and Promoter-defined Separation of Mitotic Oligodendrocyte Progenitor Cells from the Adult Human Subcortical White Matter,” J. Neurosci 19:9986-95 (1999), which is hereby incorporated by reference in its entirety). For multiple antigen labeling, O4 and A2B5 were localized on live cells that were then fixed with 4% paraformaldehyde and immunostained for BrdU. O4 supernatant was used at a dilution of 1:100 and monoclonal antibody A2B5 supernatant (clone 105, American Type Culture Collection) was used in a 1:1 ratio with DMEM/F12/N, both for 40 minutes at 4° C. Rat anti-BrdU antibody (Harlan) was used at a dilution of 1:200. Fixed cultures were counterstained with DAPI (10 ng ml; Molecular Probes). The number of A2B5 and O4 stained and unstained cells were counted in 10 randomly chosen fields at each dosage level, from individual replicate samples (n=4). Statistical significance was assessed by one-way repeated measures analysis of variance (ANOVA), followed by Tukey's multiple comparisons test (GraphPad Prism 3.0, p<0.05).
Due to the high expression of the tyrosine phosphatase receptor RTPβ/ζ in WMPCs, the effect of tyrosine phosphatase inhibition on the differentiation of WMPCs was assessed. bpV(phen), a known potent inhibitor of tyrosine phosphatase activity, was used to induce inhibition (Posner et al., “Peroxovanadium Compounds. A New Class of Potent Phosphotyrosine Phosphatase Inhibitors Which Are Insulin Mimetics,” J Biol Chem 269: 4596-4604 (1994); Bevan et al., “Selective Activation of the Rat Hepatic Endosomal Insulin Receptor Kinase. Role for the Endosome in Insulin Signaling,” J Biol Chem 270: 10784-10791 (1995); Faure et al., “Arrest at The G2/M Transition of the Cell Cycle by Protein-Tyrosine Phosphatase Inhibition Studies on a Neuronal and a Glial Cell Line,” J Cell Biochem 59: 389-401 (1995), which are hereby incorporated by reference in their entirety). […] Statistical significance was first detected at 1 ng/ml bpV(phen) in the A2B5 positive population and 10 ng ml bpV(phen) in the O4 positive population. The O4/A2B5 ratio rose drastically from under 10 percent to 70 percent in response to 25 ng/ml treatment with bpV(phen) (FIG. 1E).

[1] = 7 days in vitro, doses 0, 1, 5, 10, 25 ng/ml
[2] = between dosage levels 0-25 ng/ml, 7 days in vitro

For `O.O.O.OO.OO.[K+].[OH-].[V].c1cnc2c(c1)ccc1cccnc12` [bpV(phen), potassium bisperoxo (1,10-phenanthroline) oxovanadate (V)], the “percentage of O4+ cells” value (25 ng ml, 7 days in vitro, n=4 patients, untreated 20±8.4%) was 54±17.6%, the “percentage of progenitor A2B5+ cells” value (25 ng/ml, 7 days in vitro, n=4 patients, untreated 15±2.2%) was 4±0.5% and the O4/A2B5 ratio (25 ng/ml, 7 days in vitro, untreated under 10 percent) was 70%. The “concentration at which statistical significance was first detected, A2B5 positive population” value [1] was 1 ng/mL, the “concentration at which statistical significance was first detected, O4 positive population” value [1] was 10 ng·mL and the “effect on WMPC expansion and differentiation” value (WMPCs exposed to the RTP inhibitor) was “ceased expansion and differentiated as oligodendrocytes”. For the same molecule, the “number of A2B5+ BrdU+ cells” value [2] was “unchanged” and the total cell number [2] was “unchanged”.
